Data published in ChEMBL document CHEMBL4507320, “Data for DCP probe NVS-MALT1” (2021).
Calls of active or inactive are those of the source. The calls are words filed in the database; no cut-off is given here.

Assays:
[1] = system: Receptor-type tyrosine-protein kinase FLT3 (Homo sapiens), P36888 [K663Q]; details: Compound concentration 1000.0 nM
[2] = biological target: Fibroblast growth factor receptor 3 (Homo sapiens) (UniProt P22607); details: Compound concentration 1000.0 nM
[3] = biological target: Serine/threonine-protein kinase MRCK alpha (Homo sapiens) (UniProt Q5VT25); details: Compound concentration 1000.0 nM
[4] = biological target: Tyrosine-protein kinase HCK (Homo sapiens) (UniProt P08631); details: Compound concentration 1000.0 nM
[5] = biological target: Cathepsin K (Homo sapiens) (UniProt P43235); assay: Cathepsin K (h) Protease assay; details: Compound concentration 10.0 uM
[6] = biological target: T1, Mucosa-associated lymphoid tissue lymphoma translocation protein 1 (Homo sapiens, UniProt Q9UDY8); assay: Human biochemical (TR-FRET) assay (low salt)
T1 sequence (Q9UDY8 whole entry): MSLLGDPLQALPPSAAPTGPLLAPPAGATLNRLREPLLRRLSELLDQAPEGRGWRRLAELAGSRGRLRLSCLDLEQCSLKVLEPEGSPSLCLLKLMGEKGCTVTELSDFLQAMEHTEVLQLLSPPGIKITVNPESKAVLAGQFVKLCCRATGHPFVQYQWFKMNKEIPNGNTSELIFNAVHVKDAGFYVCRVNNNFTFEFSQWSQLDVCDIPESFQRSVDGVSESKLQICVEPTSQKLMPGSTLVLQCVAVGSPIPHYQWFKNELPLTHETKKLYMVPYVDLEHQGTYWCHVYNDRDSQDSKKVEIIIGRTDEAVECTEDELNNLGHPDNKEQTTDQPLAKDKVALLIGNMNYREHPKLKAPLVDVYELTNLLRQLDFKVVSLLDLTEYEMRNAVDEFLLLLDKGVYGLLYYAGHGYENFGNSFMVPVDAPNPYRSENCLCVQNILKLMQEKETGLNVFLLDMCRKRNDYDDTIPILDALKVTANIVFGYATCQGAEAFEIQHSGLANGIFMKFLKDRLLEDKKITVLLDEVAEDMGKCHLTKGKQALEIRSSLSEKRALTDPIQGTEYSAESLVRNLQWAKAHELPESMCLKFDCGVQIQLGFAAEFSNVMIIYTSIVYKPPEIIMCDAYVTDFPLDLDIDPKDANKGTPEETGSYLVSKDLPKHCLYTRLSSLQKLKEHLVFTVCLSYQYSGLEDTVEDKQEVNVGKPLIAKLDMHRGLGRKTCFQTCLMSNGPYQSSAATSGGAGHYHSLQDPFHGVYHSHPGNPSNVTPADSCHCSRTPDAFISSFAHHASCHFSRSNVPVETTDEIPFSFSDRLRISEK

[7] = system: Tyrosine-protein kinase ABL1 (Homo sapiens), P00519 [F317I]; details: Compound concentration 1000.0 nM
[8] = biological target: Serine/threonine-protein kinase Nek11 (Homo sapiens) (UniProt Q8NG66); details: Compound concentration 1000.0 nM
[9] = biological target: Serine/threonine-protein kinase BRSK2 (Homo sapiens) (UniProt Q8IWQ3); details: Compound concentration 1000.0 nM
[10] = biological target: Serine/threonine-protein kinase Sgk2 (Homo sapiens) (UniProt Q9HBY8); details: Compound concentration 1000.0 nM
[11] = biological target: Calcium/calmodulin-dependent protein kinase type IV (Homo sapiens) (UniProt Q16566); details: Compound concentration 1000.0 nM
[12] = biological target: Mitogen-activated protein kinase kinase kinase kinase 1 (Homo sapiens) (UniProt Q92918); details: Compound concentration 1000.0 nM
[13] = biological target: Muscarinic acetylcholine receptor M3 (Homo sapiens) (UniProt P20309); details: Compound concentration 10.0 uM
[14] = biological target: Serine/threonine-protein kinase VRK2 (Homo sapiens) (UniProt Q86Y07); details: Compound concentration 1000.0 nM
[15] = biological target: Ephrin type-A receptor 4 (Homo sapiens) (UniProt P54764); details: Compound concentration 1000.0 nM
[16] = biological target: Casein kinase I isoform alpha-like (Homo sapiens) (UniProt Q8N752); details: Compound concentration 1000.0 nM
[17] = biological target: Ribosomal protein S6 kinase alpha-5 (Homo sapiens) (UniProt O75582); details: Compound concentration 1000.0 nM
[18] = biological target: Macrophage colony-stimulating factor 1 receptor (Homo sapiens) (UniProt P07333); details: Compound concentration 1000.0 nM
[19] = biological target: MAP kinase-activated protein kinase 2 (Homo sapiens) (UniProt P49137); details: Compound concentration 1000.0 nM
[20] = biological target: Procathepsin L (Homo sapiens) (UniProt P07711); assay: Cathepsin L (h) Protease assay; details: Compound concentration 10.0 uM
[21] = biological target: Tyrosine-protein kinase Mer (Homo sapiens) (UniProt Q12866); details: Compound concentration 1000.0 nM
[22] = biological target: Serine/threonine-protein kinase WNK1 (Homo sapiens) (UniProt Q9H4A3); details: Compound concentration 1000.0 nM
[23] = biological target: Epithelial discoidin domain-containing receptor 1 (Homo sapiens) (UniProt Q08345); details: Compound concentration 1000.0 nM
[24] = biological target: D(3) dopamine receptor (Homo sapiens) (UniProt P35462); details: Compound concentration 10.0 uM
[25] = biological target: Phosphatidylinositol 4,5-bisphosphate 3-kinase catalytic subunit delta isoform (Homo sapiens) (UniProt O00329); details: Compound concentration 1000.0 nM
[26] = biological target: Dual specificity mitogen-activated protein kinase kinase 5 (Homo sapiens) (UniProt Q13163); details: Compound concentration 1000.0 nM
[27] = biological target: Serine/threonine-protein kinase/endoribonuclease IRE1 (Homo sapiens) (UniProt O75460); details: Compound concentration 1000.0 nM
[28] = biological target: SRSF protein kinase 2 (Homo sapiens) (UniProt P78362); details: Compound concentration 1000.0 nM
[29] = biological target: Myosin light chain kinase family member 4 (Homo sapiens) (UniProt Q86YV6); details: Compound concentration 1000.0 nM
[30] = biological target: Mitogen-activated protein kinase kinase kinase kinase 2 (Homo sapiens) (UniProt Q12851); details: Compound concentration 1000.0 nM
[31] = biological target: Mitogen-activated protein kinase kinase kinase 10 (Homo sapiens) (UniProt Q02779); details: Compound concentration 1000.0 nM
[32] = biological target: Phosphatidylinositol 4,5-bisphosphate 3-kinase catalytic subunit alpha isoform (Homo sapiens) (UniProt P42336); details: Compound concentration 1000.0 nM
[33] = biological target: Dual specificity protein kinase CLK1 (Homo sapiens) (UniProt P49759); details: Compound concentration 1000.0 nM
[34] = biological target: Serine/threonine-protein kinase DCLK1 (Homo sapiens) (UniProt O15075); details: Compound concentration 1000.0 nM

Chain of Serine/threonine-protein kinase BRSK2 (Homo sapiens) (Q8IWQ3 whole entry): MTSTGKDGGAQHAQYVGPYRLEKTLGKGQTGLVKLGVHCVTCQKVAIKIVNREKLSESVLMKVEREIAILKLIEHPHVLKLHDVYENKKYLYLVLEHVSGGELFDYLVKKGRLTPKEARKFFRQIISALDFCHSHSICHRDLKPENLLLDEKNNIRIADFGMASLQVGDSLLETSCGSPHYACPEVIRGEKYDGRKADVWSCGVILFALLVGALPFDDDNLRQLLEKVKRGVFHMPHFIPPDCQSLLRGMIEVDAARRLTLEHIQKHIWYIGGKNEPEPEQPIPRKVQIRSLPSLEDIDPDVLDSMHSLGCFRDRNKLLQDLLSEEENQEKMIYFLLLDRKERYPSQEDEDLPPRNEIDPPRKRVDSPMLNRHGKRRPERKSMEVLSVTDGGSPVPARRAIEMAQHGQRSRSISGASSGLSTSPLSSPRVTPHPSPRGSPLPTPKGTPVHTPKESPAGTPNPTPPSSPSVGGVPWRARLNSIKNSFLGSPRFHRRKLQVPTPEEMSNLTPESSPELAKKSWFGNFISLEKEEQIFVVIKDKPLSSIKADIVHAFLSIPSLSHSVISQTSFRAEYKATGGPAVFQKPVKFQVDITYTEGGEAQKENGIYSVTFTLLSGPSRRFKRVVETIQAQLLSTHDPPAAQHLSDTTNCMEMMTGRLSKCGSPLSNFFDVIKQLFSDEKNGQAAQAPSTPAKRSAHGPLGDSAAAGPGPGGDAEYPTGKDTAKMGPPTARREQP
Chain of D(3) dopamine receptor (Homo sapiens) (P35462 whole entry, canonical isoform): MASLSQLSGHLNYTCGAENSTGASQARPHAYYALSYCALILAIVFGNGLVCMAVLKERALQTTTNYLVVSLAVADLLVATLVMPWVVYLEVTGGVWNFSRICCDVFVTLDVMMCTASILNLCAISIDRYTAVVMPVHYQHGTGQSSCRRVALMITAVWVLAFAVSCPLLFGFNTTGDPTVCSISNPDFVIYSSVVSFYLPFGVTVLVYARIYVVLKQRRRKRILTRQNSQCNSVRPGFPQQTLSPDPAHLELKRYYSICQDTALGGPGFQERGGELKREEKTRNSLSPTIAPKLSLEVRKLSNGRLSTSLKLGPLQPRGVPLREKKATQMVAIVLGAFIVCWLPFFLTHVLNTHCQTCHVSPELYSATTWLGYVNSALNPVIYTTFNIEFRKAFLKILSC
Chain of Fibroblast growth factor receptor 3 (Homo sapiens) (P22607 23-806 limits assumed): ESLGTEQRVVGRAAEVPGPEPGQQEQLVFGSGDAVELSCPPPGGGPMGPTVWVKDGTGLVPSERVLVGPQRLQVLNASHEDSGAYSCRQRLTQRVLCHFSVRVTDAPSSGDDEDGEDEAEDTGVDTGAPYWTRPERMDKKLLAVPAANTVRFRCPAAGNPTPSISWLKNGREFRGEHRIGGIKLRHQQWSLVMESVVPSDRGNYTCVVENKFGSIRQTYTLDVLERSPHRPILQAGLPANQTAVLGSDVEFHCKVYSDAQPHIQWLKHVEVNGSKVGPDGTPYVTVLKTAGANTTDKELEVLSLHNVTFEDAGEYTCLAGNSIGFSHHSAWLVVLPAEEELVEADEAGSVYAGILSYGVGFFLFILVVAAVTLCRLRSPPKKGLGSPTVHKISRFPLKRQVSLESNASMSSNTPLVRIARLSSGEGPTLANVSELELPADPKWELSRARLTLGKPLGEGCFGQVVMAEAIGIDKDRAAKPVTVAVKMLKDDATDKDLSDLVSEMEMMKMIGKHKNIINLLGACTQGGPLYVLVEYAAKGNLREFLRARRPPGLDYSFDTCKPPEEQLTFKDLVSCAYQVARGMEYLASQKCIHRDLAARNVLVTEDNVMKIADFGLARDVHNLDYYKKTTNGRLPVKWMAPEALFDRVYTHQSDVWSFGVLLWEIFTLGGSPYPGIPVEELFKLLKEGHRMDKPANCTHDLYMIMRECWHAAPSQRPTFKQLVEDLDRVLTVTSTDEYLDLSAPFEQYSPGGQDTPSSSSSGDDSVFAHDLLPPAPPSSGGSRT
Chain of Muscarinic acetylcholine receptor M3 (Homo sapiens) (P20309 whole entry, looked up): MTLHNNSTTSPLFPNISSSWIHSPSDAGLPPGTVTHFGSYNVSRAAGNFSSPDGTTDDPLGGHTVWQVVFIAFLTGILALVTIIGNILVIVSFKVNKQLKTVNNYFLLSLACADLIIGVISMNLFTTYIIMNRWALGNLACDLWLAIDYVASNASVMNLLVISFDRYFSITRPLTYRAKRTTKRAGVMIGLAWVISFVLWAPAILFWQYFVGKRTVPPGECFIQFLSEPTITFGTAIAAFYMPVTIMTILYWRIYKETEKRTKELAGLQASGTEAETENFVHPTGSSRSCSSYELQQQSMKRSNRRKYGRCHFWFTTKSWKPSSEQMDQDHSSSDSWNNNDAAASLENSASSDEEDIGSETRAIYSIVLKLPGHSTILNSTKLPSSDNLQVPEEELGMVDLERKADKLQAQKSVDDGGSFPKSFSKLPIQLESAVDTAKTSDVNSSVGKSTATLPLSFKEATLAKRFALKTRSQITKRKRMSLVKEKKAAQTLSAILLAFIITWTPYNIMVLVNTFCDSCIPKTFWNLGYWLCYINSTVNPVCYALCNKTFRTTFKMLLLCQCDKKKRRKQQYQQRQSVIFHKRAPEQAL
Chain of Dual specificity mitogen-activated protein kinase kinase 5 (Homo sapiens) (Q13163 whole entry): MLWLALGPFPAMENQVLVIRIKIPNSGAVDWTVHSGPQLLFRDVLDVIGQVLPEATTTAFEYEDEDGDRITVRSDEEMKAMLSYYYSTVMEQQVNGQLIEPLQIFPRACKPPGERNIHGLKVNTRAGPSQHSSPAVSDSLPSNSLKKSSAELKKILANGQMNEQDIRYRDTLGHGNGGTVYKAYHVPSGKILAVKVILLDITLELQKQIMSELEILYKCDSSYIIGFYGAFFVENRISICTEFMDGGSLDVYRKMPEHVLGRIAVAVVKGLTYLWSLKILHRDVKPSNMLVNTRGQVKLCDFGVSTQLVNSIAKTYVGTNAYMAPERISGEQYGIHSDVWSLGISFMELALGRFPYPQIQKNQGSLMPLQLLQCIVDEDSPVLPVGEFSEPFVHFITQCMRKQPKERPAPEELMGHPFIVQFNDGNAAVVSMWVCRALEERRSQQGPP
Chain of Serine/threonine-protein kinase/endoribonuclease IRE1 (Homo sapiens) (O75460 19-977 limits assumed): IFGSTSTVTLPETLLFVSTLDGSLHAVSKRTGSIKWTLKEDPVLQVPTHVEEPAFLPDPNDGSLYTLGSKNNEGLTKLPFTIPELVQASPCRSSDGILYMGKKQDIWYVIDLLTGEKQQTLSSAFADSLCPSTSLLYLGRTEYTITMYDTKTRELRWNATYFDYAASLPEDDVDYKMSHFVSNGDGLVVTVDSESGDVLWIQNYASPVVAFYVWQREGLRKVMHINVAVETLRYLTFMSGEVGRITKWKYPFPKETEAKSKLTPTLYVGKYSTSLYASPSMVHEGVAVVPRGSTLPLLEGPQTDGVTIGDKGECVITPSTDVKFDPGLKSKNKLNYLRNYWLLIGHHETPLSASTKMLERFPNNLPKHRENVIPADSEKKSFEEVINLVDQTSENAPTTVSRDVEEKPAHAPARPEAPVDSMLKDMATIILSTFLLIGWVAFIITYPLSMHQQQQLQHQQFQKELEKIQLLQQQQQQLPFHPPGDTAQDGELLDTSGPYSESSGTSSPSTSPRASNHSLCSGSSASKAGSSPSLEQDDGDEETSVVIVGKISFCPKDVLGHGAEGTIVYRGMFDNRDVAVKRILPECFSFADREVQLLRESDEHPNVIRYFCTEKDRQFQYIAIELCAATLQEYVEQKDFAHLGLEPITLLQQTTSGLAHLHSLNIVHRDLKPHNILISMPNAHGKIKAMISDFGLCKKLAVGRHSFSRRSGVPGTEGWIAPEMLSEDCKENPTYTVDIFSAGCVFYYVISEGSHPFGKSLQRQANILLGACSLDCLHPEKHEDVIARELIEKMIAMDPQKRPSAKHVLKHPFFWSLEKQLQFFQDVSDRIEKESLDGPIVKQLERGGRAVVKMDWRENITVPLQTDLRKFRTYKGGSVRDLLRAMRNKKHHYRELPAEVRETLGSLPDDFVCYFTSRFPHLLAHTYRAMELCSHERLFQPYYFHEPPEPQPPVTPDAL
Chain of Serine/threonine-protein kinase VRK2 (Homo sapiens) (Q86Y07 whole entry): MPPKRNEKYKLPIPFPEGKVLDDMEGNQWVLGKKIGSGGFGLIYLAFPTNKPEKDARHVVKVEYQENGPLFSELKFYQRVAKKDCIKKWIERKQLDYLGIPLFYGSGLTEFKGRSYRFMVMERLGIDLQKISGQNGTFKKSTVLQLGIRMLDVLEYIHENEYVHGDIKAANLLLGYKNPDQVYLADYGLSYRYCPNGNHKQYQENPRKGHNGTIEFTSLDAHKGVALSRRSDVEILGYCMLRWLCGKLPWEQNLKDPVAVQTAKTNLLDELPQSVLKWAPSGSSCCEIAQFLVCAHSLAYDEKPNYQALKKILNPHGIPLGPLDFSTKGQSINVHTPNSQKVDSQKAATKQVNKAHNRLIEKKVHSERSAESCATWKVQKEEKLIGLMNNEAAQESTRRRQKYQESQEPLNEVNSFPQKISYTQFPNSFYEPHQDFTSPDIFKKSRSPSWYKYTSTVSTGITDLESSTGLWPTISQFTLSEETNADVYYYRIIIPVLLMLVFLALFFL
Chain of Calcium/calmodulin-dependent protein kinase type IV (Homo sapiens) (Q16566 whole entry): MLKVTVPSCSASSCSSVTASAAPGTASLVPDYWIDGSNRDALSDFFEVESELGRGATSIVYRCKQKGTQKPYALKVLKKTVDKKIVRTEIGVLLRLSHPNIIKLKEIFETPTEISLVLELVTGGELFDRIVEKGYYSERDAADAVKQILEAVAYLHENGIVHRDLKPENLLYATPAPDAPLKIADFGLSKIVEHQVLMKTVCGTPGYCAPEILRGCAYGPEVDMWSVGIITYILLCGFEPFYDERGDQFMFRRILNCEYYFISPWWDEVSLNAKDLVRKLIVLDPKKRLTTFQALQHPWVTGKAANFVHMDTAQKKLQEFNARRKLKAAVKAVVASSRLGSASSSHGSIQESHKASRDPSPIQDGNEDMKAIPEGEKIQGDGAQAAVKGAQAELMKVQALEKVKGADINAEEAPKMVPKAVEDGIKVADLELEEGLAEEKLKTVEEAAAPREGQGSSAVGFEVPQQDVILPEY

SMILES: CO[C@@H](C)c1c(Nc2ccc([C@H](N(C)C(=O)C3CCS(=O)(=O)CC3)C(F)(F)F)cc2)cnc2cc(Cl)nn12 [NVS-MALT1]
- residual activity [1]: 100%
- residual activity [2]: 88%
- residual activity [3]: 86%
- residual activity [4]: 100%
- inhibition [5]: 2%
- IC50 [6]: 18 nM (active)
- residual activity [7]: 100%
- residual activity [8]: 100%
- residual activity [9]: 79%
- residual activity [10]: 91%
- residual activity [11]: 100%
- residual activity [12]: 100%
- inhibition [13]: -8.44%
- residual activity [14]: 100%
- residual activity [15]: 83%
- residual activity [16]: 65%
- residual activity [17]: 86%
- residual activity [18]: 95%
- residual activity [19]: 90%
- inhibition [20]: -3%
- residual activity [21]: 87%
- residual activity [22]: 100%
- residual activity [23]: 99%
- inhibition [24]: -4.43%
- residual activity [25]: 98%
- residual activity [26]: 60%
- residual activity [27]: 91%
- residual activity [28]: 100%
- residual activity [29]: 86%
- residual activity [30]: 100%
- residual activity [31]: 71%
- residual activity [32]: 94%
- residual activity [33]: 81%
- residual activity [34]: 72%

SMILES: CO[C@@H](C)c1c(Nc2ccc([C@@H](N(C)C(=O)C3CCS(=O)(=O)CC3)C(F)(F)F)cc2)cnc2cc(Cl)nn12 [NVS-MALT1-C]
- residual activity [1]: 94%
- residual activity [2]: 90%
- residual activity [3]: 94%
- residual activity [4]: 100%
- residual activity [7]: 100%
- residual activity [8]: 100%
- residual activity [9]: 90%
- residual activity [10]: 99%
- residual activity [11]: 100%
- residual activity [12]: 100%
- inhibition [13]: -2.58%
- residual activity [14]: 100%
- residual activity [15]: 100%
- residual activity [16]: 84%
- residual activity [17]: 82%
- residual activity [18]: 88%
- residual activity [19]: 100%
- residual activity [21]: 79%
- residual activity [22]: 98%
- residual activity [23]: 100%
- inhibition [24]: -5.92%
- residual activity [25]: 87%
- residual activity [26]: 91%
- residual activity [27]: 100%
- residual activity [28]: 99%
- residual activity [29]: 83%
- residual activity [30]: 100%
- residual activity [31]: 77%
- residual activity [32]: 92%
- residual activity [33]: 82%
- residual activity [34]: 75%
